# Reference: patent US7884136B2, “Modified-release formulations of a bupropion salt” (Biovail Laboratories International S.R.L., priority 2005, dated 2011)
# Test: Shelf life stability program of bupropion HBr, 25° C./60% RH, 3 and 6 months, HPLC
# Type: physicochemical
# Conditions: 25° C., R.H. 60%; for Chromatographic purity B) (HPLC) 4) 2-N-(tert-Butyl)-aminopropiophenone / Chromatographic purity B) (HPLC) 5) single unknown impurity (each): LOQ 0.02%, LOD 0.002%; for Chromatographic purity A) (HPLC) 1) 3′-Chloropropiophenone / Chromatographic purity A) (HPLC) 3) 3′-Chlorobenzoic acid / Chromatographic purity A) (HPLC) 2) 3′-Chloro-2-bromopropiophenone: LOQ 0.05%; for Chromatographic purity A) (HPLC) 1) 3′-Chloropropiophenone / Chromatographic purity A) (HPLC) 3) 3′-Chlorobenzoic acid: LOD 0.01%; for Chromatographic purity A) (HPLC) 2) 3′-Chloro-2-bromopropiophenone: LOD 0.04%
# In short: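 Three batches of bupropion HBr stored in closed containers at 25° C.+2° C./60%+5% RH. Sampled at time 0, 3 and 6 months, each analysed under two HPLC conditions for 6 impurities or impurity groups; degradation product amounts compared to time 0.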
compound,measurement,setting,value
Br.CC(NC(C)(C)C)C(=O)c1cccc(Cl)c1 (stereo not drawn) [Bupropion•HBr],Assay (HPLC),"Batch D00894, 12 months",99.6 % on d.b.
same,Chromatographic purity (HPLC: A + B) Total impurities,"Batch D00894, 12 months",0.2%
same,Chromatographic purity B) (HPLC) 6) total unknown impurities,"Batch D00894, 12 months",6) 0.07%
same,Description (white or almost white crystalline powder),"Batch D00894, 12 months",conform
same,"Identification IR, HPLC","Batch D00894, 12 months",positive
same,Water content (K.F.),"Batch D00894, 12 months",0.05%
same,Chromatographic purity B) (HPLC) 4) 2-N-(tert-Butyl)-aminopropiophenone,"Batch D00894, 12 months",4) 0.05%
same,Chromatographic purity B) (HPLC) 5) single unknown impurity (each),"Batch D00894, 12 months",5) 0.05%
same,Chromatographic purity A) (HPLC) 1) 3′-Chloropropiophenone,"Batch D00894, 12 months",1) n.d.
same,Chromatographic purity A) (HPLC) 3) 3′-Chlorobenzoic acid,"Batch D00894, 12 months",3) 0.05%
same,Chromatographic purity A) (HPLC) 2) 3′-Chloro-2-bromopropiophenone,"Batch D00894, 12 months",2) n.d.
same,Assay (HPLC),"Batch D00894, time 0",99.6 % on d.b.
same,Chromatographic purity (HPLC: A + B) Total impurities,"Batch D00894, time 0",0.1%
same,Chromatographic purity B) (HPLC) 6) total unknown impurities,"Batch D00894, time 0",6) 0.04%
same,Description (white or almost white crystalline powder),"Batch D00894, time 0",conform
same,"Identification IR, HPLC","Batch D00894, time 0",positive
same,Water content (K.F.),"Batch D00894, time 0",0.05%
same,Chromatographic purity B) (HPLC) 4) 2-N-(tert-Butyl)-aminopropiophenone,"Batch D00894, time 0",4) 0.04%
same,Chromatographic purity B) (HPLC) 5) single unknown impurity (each),"Batch D00894, time 0",5) 0.04%
same,Chromatographic purity A) (HPLC) 1) 3′-Chloropropiophenone,"Batch D00894, time 0",1) n.d.
same,Chromatographic purity A) (HPLC) 3) 3′-Chlorobenzoic acid,"Batch D00894, time 0",3) n.q.
same,Chromatographic purity A) (HPLC) 2) 3′-Chloro-2-bromopropiophenone,"Batch D00894, time 0",2) n.d.
same,Assay (HPLC),"Batch D00895, 3 months",99.5 % on d.b.
same,Chromatographic purity (HPLC: A + B) Total impurities,"Batch D00895, 3 months",0.1%
same,Chromatographic purity B) (HPLC) 6) total unknown impurities,"Batch D00895, 3 months",6) 0.05%
same,Description (white or almost white crystalline powder),"Batch D00895, 3 months",conform
same,"Identification IR, HPLC","Batch D00895, 3 months",positive
same,Water content (K.F.),"Batch D00895, 3 months",0.04%
same,Chromatographic purity B) (HPLC) 4) 2-N-(tert-Butyl)-aminopropiophenone,"Batch D00895, 3 months",4) 0.03%
same,Chromatographic purity B) (HPLC) 5) single unknown impurity (each),"Batch D00895, 3 months",5) 0.04%
same,Chromatographic purity A) (HPLC) 1) 3′-Chloropropiophenone,"Batch D00895, 3 months",1) n.q.
same,Chromatographic purity A) (HPLC) 3) 3′-Chlorobenzoic acid,"Batch D00895, 3 months",3) n.q.
same,Chromatographic purity A) (HPLC) 2) 3′-Chloro-2-bromopropiophenone,"Batch D00895, 3 months",2) n.d.
same,Assay (HPLC),"Batch D00895, 6 months",100.1 % on d.b.
same,Chromatographic purity (HPLC: A + B) Total impurities,"Batch D00895, 6 months",0.1%
same,Chromatographic purity B) (HPLC) 6) total unknown impurities,"Batch D00895, 6 months",6) 0.02%
same,Description (white or almost white crystalline powder),"Batch D00895, 6 months",conform
same,"Identification IR, HPLC","Batch D00895, 6 months",positive
same,Water content (K.F.),"Batch D00895, 6 months",0.05%
same,Chromatographic purity B) (HPLC) 4) 2-N-(tert-Butyl)-aminopropiophenone,"Batch D00895, 6 months",4) 0.05%
same,Chromatographic purity B) (HPLC) 5) single unknown impurity (each),"Batch D00895, 6 months",5) n.q.
same,Chromatographic purity A) (HPLC) 1) 3′-Chloropropiophenone,"Batch D00895, 6 months",1) 0.05%
same,Chromatographic purity A) (HPLC) 3) 3′-Chlorobenzoic acid,"Batch D00895, 6 months",3) n.q.
same,Chromatographic purity A) (HPLC) 2) 3′-Chloro-2-bromopropiophenone,"Batch D00895, 6 months",2) n.d.
same,Assay (HPLC),"Batch D00895, 9 months",99.4 % on d.b.
same,Chromatographic purity (HPLC: A + B) Total impurities,"Batch D00895, 9 months",n.q.
same,Chromatographic purity B) (HPLC) 6) total unknown impurities,"Batch D00895, 9 months",6) n.q.
same,Description (white or almost white crystalline powder),"Batch D00895, 9 months",conform
same,"Identification IR, HPLC","Batch D00895, 9 months",positive
same,Water content (K.F.),"Batch D00895, 9 months",0.05%
same,Chromatographic purity B) (HPLC) 4) 2-N-(tert-Butyl)-aminopropiophenone,"Batch D00895, 9 months",4) n.d.
same,Chromatographic purity B) (HPLC) 5) single unknown impurity (each),"Batch D00895, 9 months",5) n.q.
same,Chromatographic purity A) (HPLC) 1) 3′-Chloropropiophenone,"Batch D00895, 9 months",1) n.q.
same,Chromatographic purity A) (HPLC) 3) 3′-Chlorobenzoic acid,"Batch D00895, 9 months",3) n.q.
same,Chromatographic purity A) (HPLC) 2) 3′-Chloro-2-bromopropiophenone,"Batch D00895, 9 months",2) n.d.
same,Assay (HPLC),"Batch D00895, 12 months",99.4 % on d.b.
same,Chromatographic purity (HPLC: A + B) Total impurities,"Batch D00895, 12 months",0.2%
same,Chromatographic purity B) (HPLC) 6) total unknown impurities,"Batch D00895, 12 months",6) 0.07%
same,Description (white or almost white crystalline powder),"Batch D00895, 12 months",conform
same,"Identification IR, HPLC","Batch D00895, 12 months",positive
same,Water content (K.F.),"Batch D00895, 12 months",0.04%
same,Chromatographic purity B) (HPLC) 4) 2-N-(tert-Butyl)-aminopropiophenone,"Batch D00895, 12 months",4) 0.05%
same,Chromatographic purity B) (HPLC) 5) single unknown impurity (each),"Batch D00895, 12 months",5) 0.07%
same,Chromatographic purity A) (HPLC) 1) 3′-Chloropropiophenone,"Batch D00895, 12 months",1) n.d.
same,Chromatographic purity A) (HPLC) 3) 3′-Chlorobenzoic acid,"Batch D00895, 12 months",3) 0.05%
same,Chromatographic purity A) (HPLC) 2) 3′-Chloro-2-bromopropiophenone,"Batch D00895, 12 months",2) n.d.
same,Assay (HPLC),"Batch D00895, time 0",99.2 % on d.b.
same,Chromatographic purity (HPLC: A + B) Total impurities,"Batch D00895, time 0",0.1%
same,Chromatographic purity B) (HPLC) 6) total unknown impurities,"Batch D00895, time 0",6) 0.04%
same,Description (white or almost white crystalline powder),"Batch D00895, time 0",conform
same,"Identification IR, HPLC","Batch D00895, time 0",positive
same,Water content (K.F.),"Batch D00895, time 0",0.04%
same,Chromatographic purity B) (HPLC) 4) 2-N-(tert-Butyl)-aminopropiophenone,"Batch D00895, time 0",4) 0.04%
same,Chromatographic purity B) (HPLC) 5) single unknown impurity (each),"Batch D00895, time 0",5) 0.04%
same,Chromatographic purity A) (HPLC) 1) 3′-Chloropropiophenone,"Batch D00895, time 0",1) n.d.
same,Chromatographic purity A) (HPLC) 3) 3′-Chlorobenzoic acid,"Batch D00895, time 0",3) n.q.
same,Chromatographic purity A) (HPLC) 2) 3′-Chloro-2-bromopropiophenone,"Batch D00895, time 0",2) n.d.
same,Assay (HPLC),"Batch D00896, 3 months",99.4 % on d.b.
same,Chromatographic purity (HPLC: A + B) Total impurities,"Batch D00896, 3 months",0.1%
same,Chromatographic purity B) (HPLC) 6) total unknown impurities,"Batch D00896, 3 months",6) 0.05%
same,Description (white or almost white crystalline powder),"Batch D00896, 3 months",conform
same,"Identification IR, HPLC","Batch D00896, 3 months",positive
same,Water content (K.F.),"Batch D00896, 3 months",0.04%
same,Chromatographic purity B) (HPLC) 4) 2-N-(tert-Butyl)-aminopropiophenone,"Batch D00896, 3 months",4) 0.03%
same,Chromatographic purity B) (HPLC) 5) single unknown impurity (each),"Batch D00896, 3 months",5) 0.04%
same,Chromatographic purity A) (HPLC) 1) 3′-Chloropropiophenone,"Batch D00896, 3 months",1) n.q.
same,Chromatographic purity A) (HPLC) 3) 3′-Chlorobenzoic acid,"Batch D00896, 3 months",3) n.q.
same,Chromatographic purity A) (HPLC) 2) 3′-Chloro-2-bromopropiophenone,"Batch D00896, 3 months",2) n.d.
same,Assay (HPLC),"Batch D00896, 6 months",100.5 % on d.b.
same,Chromatographic purity (HPLC: A + B) Total impurities,"Batch D00896, 6 months",0.1%
same,Chromatographic purity B) (HPLC) 6) total unknown impurities,"Batch D00896, 6 months",6) n.q.
same,Description (white or almost white crystalline powder),"Batch D00896, 6 months",conform
same,"Identification IR, HPLC","Batch D00896, 6 months",positive
same,Water content (K.F.),"Batch D00896, 6 months",0.04%
same,Chromatographic purity B) (HPLC) 4) 2-N-(tert-Butyl)-aminopropiophenone,"Batch D00896, 6 months",4) 0.04%
same,Chromatographic purity B) (HPLC) 5) single unknown impurity (each),"Batch D00896, 6 months",5) n.q.
same,Chromatographic purity A) (HPLC) 1) 3′-Chloropropiophenone,"Batch D00896, 6 months",1) 0.05%
same,Chromatographic purity A) (HPLC) 3) 3′-Chlorobenzoic acid,"Batch D00896, 6 months",3) n.q.
same,Chromatographic purity A) (HPLC) 2) 3′-Chloro-2-bromopropiophenone,"Batch D00896, 6 months",2) n.d.
same,Assay (HPLC),"Batch D00896, 9 months",99.4 % on d.b.
same,Chromatographic purity (HPLC: A + B) Total impurities,"Batch D00896, 9 months",n.q.
same,Chromatographic purity B) (HPLC) 6) total unknown impurities,"Batch D00896, 9 months",6) n.q.
same,Description (white or almost white crystalline powder),"Batch D00896, 9 months",conform
same,"Identification IR, HPLC","Batch D00896, 9 months",positive
same,Water content (K.F.),"Batch D00896, 9 months",0.04%
same,Chromatographic purity B) (HPLC) 4) 2-N-(tert-Butyl)-aminopropiophenone,"Batch D00896, 9 months",4) n.d.
same,Chromatographic purity B) (HPLC) 5) single unknown impurity (each),"Batch D00896, 9 months",5) n.q.
same,Chromatographic purity A) (HPLC) 1) 3′-Chloropropiophenone,"Batch D00896, 9 months",1) n.q.
same,Chromatographic purity A) (HPLC) 3) 3′-Chlorobenzoic acid,"Batch D00896, 9 months",3) n.q.
same,Chromatographic purity A) (HPLC) 2) 3′-Chloro-2-bromopropiophenone,"Batch D00896, 9 months",2) n.d.
same,Assay (HPLC),"Batch D00896, 12 months",100.3 % on d.b.
same,Chromatographic purity (HPLC: A + B) Total impurities,"Batch D00896, 12 months",0.1%
same,Chromatographic purity B) (HPLC) 6) total unknown impurities,"Batch D00896, 12 months",6) 0.07%
same,Description (white or almost white crystalline powder),"Batch D00896, 12 months",conform
same,"Identification IR, HPLC","Batch D00896, 12 months",positive
same,Water content (K.F.),"Batch D00896, 12 months",0.03%
same,Chromatographic purity B) (HPLC) 4) 2-N-(tert-Butyl)-aminopropiophenone,"Batch D00896, 12 months",4) 0.05%
same,Chromatographic purity B) (HPLC) 5) single unknown impurity (each),"Batch D00896, 12 months",5) 0.07%
same,Chromatographic purity A) (HPLC) 1) 3′-Chloropropiophenone,"Batch D00896, 12 months",1) n.d.
same,Chromatographic purity A) (HPLC) 3) 3′-Chlorobenzoic acid,"Batch D00896, 12 months",3) n.q.
same,Chromatographic purity A) (HPLC) 2) 3′-Chloro-2-bromopropiophenone,"Batch D00896, 12 months",2) n.d.
same,Assay (HPLC),"Batch D00896, time 0",99.3 % on d.b.
same,Chromatographic purity (HPLC: A + B) Total impurities,"Batch D00896, time 0",0.1%
same,Chromatographic purity B) (HPLC) 6) total unknown impurities,"Batch D00896, time 0",6) 0.05%
same,Description (white or almost white crystalline powder),"Batch D00896, time 0",conform
same,"Identification IR, HPLC","Batch D00896, time 0",positive
same,Water content (K.F.),"Batch D00896, time 0",0.06%
same,Chromatographic purity B) (HPLC) 4) 2-N-(tert-Butyl)-aminopropiophenone,"Batch D00896, time 0",4) 0.04%
same,Chromatographic purity B) (HPLC) 5) single unknown impurity (each),"Batch D00896, time 0",5) 0.05%
same,Chromatographic purity A) (HPLC) 1) 3′-Chloropropiophenone,"Batch D00896, time 0",1) n.d.
same,Chromatographic purity A) (HPLC) 3) 3′-Chlorobenzoic acid,"Batch D00896, time 0",3) n.q.
same,Chromatographic purity A) (HPLC) 2) 3′-Chloro-2-bromopropiophenone,"Batch D00896, time 0",2) n.d.
